What follows are compounds tested against T1, Lethal factor (Bacillus anthracis, UniProt P15917) (assay: Inhibition of Bacillus anthracis lethal factor assessed as cleavage of MAPKK by fluorescence peptide cleavage assay).
T1 sequence (P15917 whole entry): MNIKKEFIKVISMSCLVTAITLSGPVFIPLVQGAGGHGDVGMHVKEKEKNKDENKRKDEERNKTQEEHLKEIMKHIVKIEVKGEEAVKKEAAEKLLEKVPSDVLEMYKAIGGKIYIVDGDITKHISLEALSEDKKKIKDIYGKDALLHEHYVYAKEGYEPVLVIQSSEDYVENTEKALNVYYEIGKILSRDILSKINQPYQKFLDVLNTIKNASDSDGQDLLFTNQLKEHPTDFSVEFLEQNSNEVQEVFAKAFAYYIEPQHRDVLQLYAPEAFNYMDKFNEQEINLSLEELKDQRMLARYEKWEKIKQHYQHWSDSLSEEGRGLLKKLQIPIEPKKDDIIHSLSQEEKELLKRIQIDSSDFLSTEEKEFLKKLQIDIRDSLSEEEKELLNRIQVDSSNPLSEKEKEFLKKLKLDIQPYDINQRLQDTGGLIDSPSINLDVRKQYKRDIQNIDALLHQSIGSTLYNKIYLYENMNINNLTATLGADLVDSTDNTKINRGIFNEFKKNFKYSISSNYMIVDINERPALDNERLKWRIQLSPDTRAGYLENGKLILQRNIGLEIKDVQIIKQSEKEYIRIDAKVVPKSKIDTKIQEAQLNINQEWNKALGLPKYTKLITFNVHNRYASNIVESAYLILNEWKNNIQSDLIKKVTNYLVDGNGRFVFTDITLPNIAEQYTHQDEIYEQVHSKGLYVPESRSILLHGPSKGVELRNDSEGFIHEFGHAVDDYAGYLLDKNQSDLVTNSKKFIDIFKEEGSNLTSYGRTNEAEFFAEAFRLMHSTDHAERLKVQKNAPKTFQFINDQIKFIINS

Structure (SMILES)	IC50 [µM]	Ki [µM]
Cc1csc(NS(=O)(=O)c2ccc(-c3ccc(Cl)cc3)cc2)c1-c1nc2ccccc2s1	12	
O=S(=O)(Nc1sccc1-c1nc2ccccc2s1)c1ccc(Br)c(Cl)c1	4.5	
CS(=O)(=O)CS(=O)(=O)Nc1sccc1-c1nc2ccccc2s1	19	
O=S(=O)(Nc1nc2ccccc2s1)c1ccc(-c2ccc(Cl)cc2)cc1	> 50	
Cc1csc(NS(=O)(=O)c2ccc(Cl)c(C(F)(F)F)c2)c1-c1nc2ccccc2s1	11	
O=S(=O)(NCCc1nc2ccccc2s1)c1ccc(-c2ccc(Cl)cc2)cc1	> 50	
Cc1csc(NS(=O)(=O)c2ccccc2)c1-c1nc2ccccc2s1	> 100	
COc1ccc(-c2ccc(S(=O)(=O)NCCc3nc4ccccc4s3)cc2)cc1	> 50	
Cc1csc(NS(=O)(=O)c2ccc(C(C)(C)C)cc2)c1-c1nc2ccccc2s1	> 100	
O=S(=O)(Nc1sccc1-c1nc2ccccc2s1)c1ccc(-c2cnco2)cc1	13	
O=S(=O)(Nc1sccc1-c1nc2ccccc2s1)c1ccc(-c2ccc(C(F)(F)F)cc2)cc1	8	
O=S(=O)(Nc1sccc1-c1nc2ccccc2s1)c1cccc(-c2ccc(Cl)cc2)c1	18	
Cc1csc(N(S(=O)(=O)c2ccc(OC(F)(F)F)cc2)S(=O)(=O)c2ccc(OC(F)(F)F)cc2)c1-c1nc2ccccc2s1	> 100	
Nc1sccc1-c1nc2ccccc2s1	> 100	
O=S(=O)(Nc1sccc1-c1nc2ccccc2s1)c1ccc(Cl)cc1F	18	
Cc1ccc(S(=O)(=O)Nc2scc(C)c2-c2nc3ccccc3s2)cc1[N+](=O)[O-]	48	
O=S(=O)(Nc1sccc1-c1nc2ccccc2s1)c1ccc(F)c(Cl)c1	13	
COc1ccc(-c2ccc(S(=O)(=O)Nc3sccc3-c3nc4ccccc4s3)cc2)cc1OC	9	
O=S(=O)(Nc1sccc1-c1nc2ccccc2s1)c1cccc(Cl)c1F	30	
Cc1csc(NS(=O)(=O)c2cccc(-c3ccccc3)c2)c1-c1nc2ccccc2s1	19	
O=S(=O)(Nc1sccc1-c1nc2ccccc2s1)c1ccccc1C(F)(F)F	9.3	
O=S(=O)(Nc1sccc1-c1nc2ccccc2s1)c1ccc(-n2cccn2)cc1	8	
O=S(=O)(Nc1sccc1-c1nc2ccccc2s1)c1ccc(-c2ccc(Cl)c(Cl)c2)cc1	7.2	

Structure (SMILES)	IC50 [µM]	Ki [µM]
Cc1cc(C)n(-c2ccc(S(=O)(=O)Nc3sccc3-c3nc4ccccc4s3)cc2)n1	11	
O=S(=O)(Nc1sccc1-c1nc2ccccc2s1)c1ccco1	> 50	
Cc1csc(NS(=O)(=O)c2cc(Cl)c(Cl)cc2Cl)c1-c1nc2ccccc2s1	15	
COc1ccc(-c2cccc(S(=O)(=O)Nc3scc(C)c3-c3nc4ccccc4s3)c2)cc1	16	
O=S(=O)(Nc1sccc1-c1nc2ccccc2s1)c1ccc(S(=O)(=O)N2CCOCC2)cc1	17	
Cc1csc(NS(=O)(=O)c2ccc(Cl)cc2)c1-c1nc2ccccc2s1	15	7.8
O=S(=O)(Nc1sccc1-c1nc2ccccc2s1)c1ccc(Cl)c(C(F)(F)F)c1	10	
Cc1ccc(S(=O)(=O)Nc2sccc2-c2nc3ccccc3s2)cc1F	11	
Cc1csc(NS(=O)(=O)c2ccc(F)c(Cl)c2)c1-c1nc2ccccc2s1	> 100	
O=S(=O)(Nc1sccc1-c1nc2ccccc2s1)c1ccc(Br)cc1	8	
COc1cccc(S(=O)(=O)Nc2scc(C)c2-c2nc3ccccc3s2)c1	11	
COc1ccc(-c2ccc(S(=O)(=O)Nc3ccccc3-c3nc4ccccc4s3)cc2)cc1	> 100	
O=S(=O)(Nc1sccc1-c1nc2ccccc2s1)c1ccc(Oc2ccccc2Cl)cc1	9	
O=S(=O)(Nc1ccccc1-c1nc2ccccc2s1)c1ccc(-c2ccc(Cl)cc2)cc1	100	
O=S(=O)(Nc1sccc1-c1nc2ccccc2s1)c1ccc(F)cc1	16	
COc1ccc(S(=O)(=O)Nc2scc(C)c2-c2nc3ccccc3s2)cc1	46	
Cc1csc(NS(=O)(=O)c2cccc(Cl)c2)c1-c1nc2ccccc2s1	> 100	
Cc1c(S(=O)(=O)Nc2sccc2-c2nc3ccccc3s2)cnn1-c1ccccc1	> 50	
O=S(=O)(Nc1oncc1-c1nc2ccccc2s1)c1ccc(-c2ccc(Cl)cc2)cc1	> 100	
O=S(=O)(Nc1sccc1-c1nc2ccccc2s1)c1ccc2ccccc2c1	8	
COc1ccc(-c2ccc(S(=O)(=O)Nc3sccc3-c3nc4ccccc4s3)cc2Cl)cc1	3	
Cc1ccc(S(=O)(=O)Nc2nc3ccccc3s2)cc1Cl	28	
O=S(=O)(Nc1sccc1-c1nc2ccccc2s1)c1ccc(Cl)c(Cl)c1	9	

Structure (SMILES)	IC50 [µM]	Ki [µM]
O=S(=O)(Nc1sccc1-c1nc2ccccc2s1)c1ccc(C(F)(F)F)cc1	11	
O=S(=O)(Nc1sccc1-c1nc2ccccc2s1)c1ccc(-c2ccc(OC(F)(F)F)cc2)cc1	3.9	
Cc1ccc(S(=O)(=O)Nc2sccc2-c2nc3ccccc3s2)cc1	13	
Cc1cc(S(=O)(=O)Nc2scc(C)c2-c2nc3ccccc3s2)ccc1F	17	
O=S(=O)(Nc1sccc1-c1nc2ccccc2s1)c1ccc2nonc2c1	30	
Cc1ccc(S(=O)(=O)Nc2scc(C)c2-c2nc3ccccc3s2)cc1Cl	8.9	
Cc1csc(N(S(=O)(=O)c2ccc(F)cc2)S(=O)(=O)c2ccc(F)cc2)c1-c1nc2ccccc2s1	> 100	
Cc1csc(NS(=O)(=O)c2ccc(Cl)cc2F)c1-c1nc2ccccc2s1	19	
O=S(=O)(Nc1sccc1-c1nc2ccccc2s1)c1ccccc1	39	
Cc1csc(NS(=O)(=O)c2ccc(Cl)c(Cl)c2)c1-c1nc2ccccc2s1	> 100	
O=S(=O)(Nc1sccc1-c1nc2ccccc2s1)c1ccc(-c2ccno2)s1	19	
Cc1nnc(-c2cccc(S(=O)(=O)Nc3sccc3-c3nc4ccccc4s3)c2)o1	25	
CC(=O)Nc1ccc(S(=O)(=O)Nc2sccc2-c2nc3ccccc3s2)cc1	24	
O=S(=O)(Nc1sccc1-c1nc2ccccc2s1)c1cccc(-c2ccccc2)c1	13	
Cc1ccc(S(=O)(=O)Nc2sccc2-c2nc3ccccc3s2)cc1[N+](=O)[O-]	10	
Cc1c(Cl)cccc1S(=O)(=O)Nc1sccc1-c1nc2ccccc2s1	> 50	
O=S(=O)(Nc1sccc1-c1nc2ccccc2s1)c1cccc(C(F)(F)F)c1	16	
O=S(=O)(Nc1sccc1-c1nc2ccccc2s1)c1ccc(Cl)cc1	15	
Cc1cc(S(=O)(=O)Nc2sccc2-c2nc3ccccc3s2)ccc1F	12	
COc1ccc(S(=O)(=O)Nc2sccc2-c2nc3ccccc3s2)cc1	18	
CN1CCOc2cc(S(=O)(=O)Nc3sccc3-c3nc4ccccc4s3)cnc21	27	
COc1ccc(-c2ccc(S(=O)(=O)Nc3nc4ccccc4s3)cc2)cc1	> 50	
Cc1csc(NS(=O)(=O)c2ccc(F)cc2)c1-c1nc2ccccc2s1	> 100	

Structure (SMILES)	IC50 [µM]	Ki [µM]
COc1ccc(-c2cccc(S(=O)(=O)Nc3sccc3-c3nc4ccccc4s3)c2)cc1	14	
COc1ccc(-c2ccc(S(=O)(=O)Nc3oncc3-c3nc4ccccc4s3)cc2)cc1	> 100	
Cc1csc(NS(=O)(=O)c2ccc(OC(F)(F)F)cc2)c1-c1nc2ccccc2s1	18	
Cc1csc(NS(=O)(=O)c2cccc(Cl)c2C)c1-c1nc2ccccc2s1	100	
Cc1csc(N(S(=O)(=O)c2cccc(C(F)(F)F)c2)S(=O)(=O)c2cccc(C(F)(F)F)c2)c1-c1nc2ccccc2s1	> 100	
N#C/C(=C\c1ccc([N+](=O)[O-])s1)C(=O)c1ccco1	19	6.6
Cc1c(S(=O)(=O)Nc2sccc2-c2nc3ccccc3s2)sc2ccccc12	10	
Cc1csc(NS(=O)(=O)c2ccc3ccccc3c2)c1-c1nc2ccccc2s1	12	
COc1ccc(-c2ccc(S(=O)(=O)Nc3scc(C)c3-c3nc4ccccc4s3)cc2)cc1	21	
Cc1ccc(S(=O)(=O)Nc2scc(C)c2-c2nc3ccccc3s2)cc1F	35	
O=C(NCc1ccc(S(=O)(=O)Nc2sccc2-c2nc3ccccc3s2)s1)c1ccc(Cl)cc1	14	
Cc1ccc(-c2ccc(S(=O)(=O)Nc3sccc3-c3nc4ccccc4s3)cc2)cc1	28	
COc1ccc(S(=O)(=O)Nc2scc(C)c2-c2nc3ccccc3s2)cc1OC	34	
Cc1csc(N)c1-c1nc2ccccc2s1	> 100	
Cc1csc(NS(=O)(=O)c2ccccc2C(F)(F)F)c1-c1nc2ccccc2s1	> 100	
Cc1ccc(S(=O)(=O)Nc2scc(C)c2-c2nc3ccccc3s2)cc1	> 100	
O=S(=O)(Nc1sccc1-c1nc2ccccc2s1)c1ccc2cc(Cl)ccc2c1	11	
COc1ccccc1Oc1ccc(S(=O)(=O)Nc2sccc2-c2nc3ccccc3s2)cc1	> 50	
Cc1csc(NS(=O)(=O)c2cccc(-c3ccc(Cl)cc3)c2)c1-c1nc2ccccc2s1	22	
Cc1csc(NS(=O)(=O)c2cccc(OC(F)(F)F)c2)c1-c1nc2ccccc2s1	11	
Cc1csc(NS(=O)(=O)c2cccc(C(F)(F)F)c2)c1-c1nc2ccccc2s1	9.4	
CN1CCOc2cc(S(=O)(=O)Nc3sccc3-c3nc4ccccc4s3)ccc21	23	

Reference: ChEMBL document CHEMBL1151859, “Structure-activity relationship studies of a novel series of anthrax lethal factor inhibitors” (Bioorg Med Chem, 2009)
